Experimental findings from patent US10787450B2 (BRISTOL-MYERS SQUIBB COMPANY, priority 2016, dated 2020) are described below.

A value given as a limit tells only on which side of the number the result lay.

ROCK2, sequence (O75116 whole entry, species assumed): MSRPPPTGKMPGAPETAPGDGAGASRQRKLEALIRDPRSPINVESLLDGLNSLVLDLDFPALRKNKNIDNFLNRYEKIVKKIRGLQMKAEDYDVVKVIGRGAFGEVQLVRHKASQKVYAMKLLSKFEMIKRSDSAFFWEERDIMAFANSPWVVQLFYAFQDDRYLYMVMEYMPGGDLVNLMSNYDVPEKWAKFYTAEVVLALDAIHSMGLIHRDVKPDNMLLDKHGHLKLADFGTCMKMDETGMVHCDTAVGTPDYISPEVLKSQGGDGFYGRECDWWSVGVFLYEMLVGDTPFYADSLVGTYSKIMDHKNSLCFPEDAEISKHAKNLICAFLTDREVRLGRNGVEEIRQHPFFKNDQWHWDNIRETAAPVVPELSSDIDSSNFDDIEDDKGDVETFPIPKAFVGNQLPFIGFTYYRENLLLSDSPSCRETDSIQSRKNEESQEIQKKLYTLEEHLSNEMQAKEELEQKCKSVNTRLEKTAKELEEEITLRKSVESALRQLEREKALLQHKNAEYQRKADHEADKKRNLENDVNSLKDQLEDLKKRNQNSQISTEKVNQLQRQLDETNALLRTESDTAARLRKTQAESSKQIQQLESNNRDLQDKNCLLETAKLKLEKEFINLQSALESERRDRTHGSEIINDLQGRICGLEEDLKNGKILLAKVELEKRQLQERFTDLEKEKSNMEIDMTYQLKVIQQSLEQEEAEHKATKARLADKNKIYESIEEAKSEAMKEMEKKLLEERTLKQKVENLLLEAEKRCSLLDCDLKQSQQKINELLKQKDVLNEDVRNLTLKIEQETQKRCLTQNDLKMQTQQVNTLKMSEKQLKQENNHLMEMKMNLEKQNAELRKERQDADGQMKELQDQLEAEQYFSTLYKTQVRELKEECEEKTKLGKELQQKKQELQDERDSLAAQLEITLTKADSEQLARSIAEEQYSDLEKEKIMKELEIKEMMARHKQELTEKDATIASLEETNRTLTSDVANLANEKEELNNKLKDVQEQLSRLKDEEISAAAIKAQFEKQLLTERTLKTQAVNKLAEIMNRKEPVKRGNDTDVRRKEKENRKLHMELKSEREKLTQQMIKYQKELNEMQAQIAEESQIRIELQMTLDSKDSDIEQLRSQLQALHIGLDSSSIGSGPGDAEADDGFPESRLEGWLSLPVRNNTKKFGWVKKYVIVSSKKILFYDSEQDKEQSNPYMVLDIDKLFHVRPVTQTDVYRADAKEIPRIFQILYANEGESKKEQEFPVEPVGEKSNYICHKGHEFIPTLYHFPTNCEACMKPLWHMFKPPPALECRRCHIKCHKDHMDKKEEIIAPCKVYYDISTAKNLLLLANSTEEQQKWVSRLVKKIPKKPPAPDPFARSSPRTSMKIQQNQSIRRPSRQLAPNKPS

This test addresses ROCK2 (Homo sapiens (Human), UniProt O75116). Nature of the test: ROCK2 kinase inhibition assay (FITC peptide substrate, LABCHIP 3000 Reader). Particulars: 5 μM ATP, 1.5 μM peptide substrate. Format: biochemical. The method, boiled down: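 Reaction in 20 mM HEPES pH 7.5, 20 mM MgCl2, 0.015% Brij-35, 4 mM DTT with 5 μM ATP and 1.5 μM FITC-AHA-AKRRRLSSLRA-OH peptide, started with Rho kinase, DMSO <2%. EDTA-stopped; phospho and non-phospho peptide separated by mobility shift. IC50 from dose-response curve fit.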
For `COC(=O)N1CC2(C1)CN(c1ccc(-c3cn[nH]c3)cc1)C(=O)C2Nc1cccc(OC)c1` (stereo not drawn) [Example 248, methyl 6-(4-(1H-pyrazol-4-yl)phenyl)-8-((3-methoxy-phenyl)amino)-7-oxo-2,6-diazaspiro [3.4]octane-2-carboxylate], the 50% inhibitory concentration (IC50) lay in the range of 0.25 to 3 µM. In turn, `CCc1nc(N2CC3(CCN(CCO)CC3)N(Cc3cccc(OC)c3)C2=O)ccc1-c1cn[nH]c1` [Example 150, 3-(6-ethyl-5-(1H-pyrazol-4-yl)pyridin-2-yl)-8-(2-hydroxyethyl)-1-(3-methoxybenzyl)-1,3,8-triazaspiro[4.5]decan-2-one] showed an IC50 of under 0.003 µM.

`O=C(NC1CCOC1)c1cccc(CN2C(=O)N(c3ccc(-c4cn[nH]c4)cc3)CC23CCOCC3)c1` (stereo not drawn) [Example 40, 3-((3-(4-(1H-pyrazol-4-yl)phenyl)-2-oxo-8-oxa-1,3-diazaspiro[4.5]decan-1-yl)methyl)-N-(tetrahydrofuran-3-yl)benzamide] displayed an IC50 of under 0.003 µM. `COc1cccc(CN2C(=O)N(c3ncc(-c4cn[nH]c4)c(OC)n3)CC23CCN(CCC(F)(F)F)CC3)c1` [Example 134, 3-(4-methoxy-5-(1H-pyrazol-4-yl)pyrimidin-2-yl)-1-(3-methoxybenzyl)-8-(3,3,3-trifluoropropyl)-1,3,8-triazaspiro[4.5]decan-2-one] registered an IC50 of 0.03 to 0.25 µM. In turn, `O=C(c1cccc(CN2C(=O)N(c3ccc(-c4cn[nH]c4)cc3)CC23CCOCC3)c1)N1CC(F)C1` [Example 43, 3-(4-(1H-pyrazol-4-yl)phenyl)-1-(3-(3-fluoroazetidine-1-carbonyl)benzyl)-8-oxa-1,3-diazaspiro[4.5]decan-2-one] gave an IC50 of 0.25 to 3 µM.

For `COc1cccc(CN2C(=O)N(c3ccc(-c4cn[nH]c4)cc3)CC23CCOCC3)c1F` [Example 29, 3-(4-(1H-pyrazol-4-yl)phenyl)-1-(2-fluoro-3-methoxybenzyl)-8-oxa-1,3-diazaspiro[4.5]decan-2-one], the IC50 was in the range of 0.03 to 0.25 µM. For `CCc1cc(N2CC3(CC3)N(Cc3cccc(OC)c3)C2=O)ccc1-c1cn[nH]c1` [Example 5, 6-(3-ethyl-4-(1H-pyrazol-4-yl)phenyl)-4-(3-methoxybenzyl)-4,6-diazaspiro[2.4]heptan-5-one], the IC50 is under 0.003 µM. The compound `CCc1nc(N2CC3(CCN(C(=O)CC(C)C)CC3)N(Cc3cccc(OC)c3)C2=O)ccc1-c1cn[nH]c1` [Example 200, 3-(6-ethyl-5-(1H-pyrazol-4-yl)pyridin-2-yl)-1-(3-methoxybenzyl)-8-(3-methylbutanoyl)-1,3,8-triazaspiro[4.5]decan-2-one] showed an IC50 of under 0.003 µM. To `COc1cccc(CN2C(=O)N(c3ncc(-c4cn[nH]c4)c(OC)n3)CC23CCN(C(=O)C(C)(C)CO)CC3)c1` [Example 211, 8-(3-hydroxy-2,2-dimethylpropanoyl)-3-(4-methoxy-5-(1H-pyrazol-4-yl)pyrimidin-2-yl)-1-(3-methoxybenzyl)-1,3,8-triazaspiro[4.5] decan-2-one] belongs 0.03 to 0.25 µM; to `COc1nc(N2CC3(CCN(C(=O)CC(C)c4ccccc4)CC3)N(Cc3cccc(F)c3C)C2=O)ccc1-c1cn[nH]c1` (stereo not drawn) [Example 224, 1-(3-fluoro-2-methylbenzyl)-3-(6-methoxy-5-(1H-pyrazol-4-yl)pyridin-2-yl)-8-(3-phenylbutanoyl)-1,3,8-triazaspiro[4.5]decan-2-one], 0.003 to 0.03 µM.

Take `COC(=O)N1CCC2(CC1)CN(c1ccc(-c3cn[nH]c3)cc1)C(=O)C2Nc1cccc(OC)c1` (stereo not drawn) [Example 251, methyl 2-(4-(1H-pyrazol-4-yl)phenyl)-4-((3-methoxy-phenyl)amino)-3-oxo-2,8-diazaspiro [4.5]decane-8-carboxylate]: the IC50 lay in the range of 0.25 to 3 µM. As for `CCc1nc(N2CC3(CCN(CCC(F)(F)F)CC3)N(Cc3cccc(F)c3C)C2=O)ccc1-c1cn[nH]c1` [Example 126, 3-(6-ethyl-5-(1H-pyrazol-4-yl)pyridin-2-yl)-1-(3-fluoro-2-methylbenzyl)-8-(3,3,3-trifluoropropyl)-1,3,8-triazaspiro[4.5]decan-2-one], the IC50 lay in the range of 0.003 to 0.03 µM. To `COc1cccc(CN2C(=O)N(c3ccc(-c4cn[nH]c4)cc3)CC23CCN(S(C)(=O)=O)CC3)c1` [Example 234, 3-(4-(1H-pyrazol-4-yl)phenyl)-1-(3-methoxybenzyl)-8-(methylsulfonyl)-1,3,8-triazaspiro[4.5]decan-2-one] belongs under 0.003 µM; to `CCc1nc(N2CC3(CCN(C(=O)CO)CC3)N(Cc3cccc(OC)c3)C2=O)ccc1-c1cn[nH]c1` [Example 184, 3-(6-ethyl-5-(1H-pyrazol-4-yl)pyridin-2-yl)-8-(2-hydroxyacetyl)-1-(3-methoxybenzyl)-1,3,8-triazaspiro[4.5]decan-2-one], under 0.003 µM; to `Cc1cc(F)ccc1CN1C(=O)N(c2ccc(-c3cn[nH]c3)cc2)CC12CCOCC2` [Example 26, 3-(4-(1H-pyrazol-4-yl)phenyl)-1-(4-fluoro-2-methylbenzyl)-8-oxa-1,3-diazaspiro[4.5]decan-2-one], 0.03 to 0.25 µM. The figure for `COCCN1CCC2(CC1)CN(c1ccc(-c3cn[nH]c3)c(OC)n1)C(=O)N2Cc1cccc(F)c1C` [Example 165, 1-(3-fluoro-2-methylbenzyl)-3-(6-methoxy-5-(1H-pyrazol-4-yl)pyridin-2-yl)-8-(2-methoxyethyl)-1,3,8-triazaspiro[4.5]decan-2-one] is under 0.003 µM. The figure for `CCc1nc(N2CC3(CCN(C(=O)C4CC(F)C4)CC3)N(Cc3cccc(OC)c3)C2=O)ccc1-c1cn[nH]c1` (stereo not drawn) [Example 208, 3-(6-ethyl-5-(1H-pyrazol-4-yl)pyridin-2-yl)-8-(3-fluorocyclobutane-carbonyl)-1-(3-methoxybenzyl)-1,3,8-triazaspiro[4.5]decan-2-one] is 0.003 to 0.03 µM.

The compound `COc1cccc(CN2C(=O)N(c3ccc(-c4cn[nH]c4)c(OC)n3)CC23CCN(C(=O)C2COC2)CC3)c1` [Example 223, 3-(6-methoxy-5-(1H-pyrazol-4-yl)pyridin-2-yl)-1-(3-methoxybenzyl)-8-(oxetane-3-carbonyl)-1,3,8-triazaspiro[4.5]decan-2-one] had an IC50 of under 0.003 µM. `CC(=O)N1CCC2(CC1)CN(c1ccc(-c3cn[nH]c3)cc1)C(=O)N2CC1CCCCC1` [Example 79, 3-(4-(1H-pyrazol-4-yl)phenyl)-8-acetyl-1-(cyclohexylmethyl)-1,3,8-triazaspiro[4.5]decan-2-one] registered an IC50 of 0.03 to 0.25 µM. To `COc1cccc(NC2C(=O)N(c3ccc(-c4cn[nH]c4)cn3)CC23CCN(C(=O)CCN2CCCC2=O)CC3)c1` (stereo not drawn) [Example 259, 2-(5-(1H-pyrazol-4-yl)pyridin-2-yl)-4-((3-methoxy-phenyl)amino)-8-(3-(2-oxo-pyrrolidin-1-yl)pro-panoyl)-2,8-diazaspiro [4.5]decan-3-one] belongs 0.25 to 3 µM. To `N#Cc1cccc(CN2C(=O)N(c3ccc(-c4cn[nH]c4)cc3)CC23CCOCC3)c1` [Example 14, 3-((3-(4-(1H-pyrazol-4-yl)phenyl)-2-oxo-8-oxa-1,3-diazaspiro[4.5]decan-1-yl)methyl)benzonitrile] belongs 0.03 to 0.25 µM; to `COc1cccc(NC2C(=O)N(c3ccc(-c4cn[nH]c4)cc3)CC23CN(C(C)=O)C3)c1` (stereo not drawn) [Example 244, 6-(4-(1H-pyrazol-4-yl)phenyl)-2-acetyl-8-((3-methoxy-phenyl)amino)-2,6-diazaspiro [3.4]octan-7-one], 0.25 to 3 µM; to `COc1cc(F)cc(CN2C(=O)N(c3ccc(-c4cn[nH]c4)cc3)CC23CCN(C2COC2)CC3)c1` [Example 236, 3-(4-(1H-pyrazol-4-yl)phenyl)-1-(3-fluoro-5-methoxy-benzyl)-8-(oxetan-3-yl)-1,3,8-triazaspiro [4.5]decan-2-one], under 0.003 µM. `COc1cccc(CN2C(=O)N(c3ccc(-c4cn[nH]c4)c(C)n3)CC23CCN(C(=O)OC(C)(C)C)CC3)c1` [Example 52, tert-butyl 1-(3-methoxybenzyl)-3-(6-methyl-5-(1H-pyrazol-4-yl)pyridin-2-yl)-2-oxo-1,3,8-triazaspiro[4.5]decane-8-carboxylate]: the IC50 lay in the range of 0.03 to 0.25 µM. The compound `COc1cccc(CN2C(=O)N(c3ccc(-c4cn[nH]c4)cc3)CC23CCN(C(=O)OCCOCc2ccccc2)CC3)c1` [Example 101, 2-(benzyloxy)ethyl 3-(4-(1H-pyrazol-4-yl)phenyl)-1-(3-methoxybenzyl)-2-oxo-1,3,8-triazaspiro[4.5]decane-8-carboxylate] gave a 50% inhibitory concentration (IC50) of 0.003 to 0.03 µM. In turn, `COc1nc(N2CC3(CCN(CC(C)(C)O)CC3)N(Cc3cccc(F)c3C)C2=O)ccc1-c1cn[nH]c1` [Example 167, 1-(3-fluoro-2-methylbenzyl)-8-(2-hydroxy-2-methylpropyl)-3-(6-methoxy-5-(1H-pyrazol-4-yl)pyridin-2-yl)-1,3,8-triazaspiro[4.5]decan-2-one] had an IC50 of under 0.003 µM. Take `COc1cccc(CN2C(=O)N(c3ccc(-c4cn[nH]c4)cn3)CC23CCN(C(=O)C(C)(C)O)CC3)c1` [Example 199, 3-(5-(1H-pyrazol-4-yl)pyridin-2-yl)-8-(2-hydroxy-2-methylpropanoyl)-1-(3-methoxybenzyl)-1,3,8-triazaspiro[4.5]decan-2-one]: the IC50 is 0.003 to 0.03 µM. Regarding `COc1cccc(CN2C(=O)N(c3ccc(-c4cn[nH]c4)cc3)CC23CCOCC3)c1` [Example 9, 3-(4-(1H-pyrazol-4-yl)phenyl)-1-(3-methoxybenzyl)-8-oxa-1,3-diazaspiro[4.5]decan-2-one], the IC50 is under 0.003 µM.

For the compound `COc1cccc(CN2C(=O)N(c3ncc(-c4cn[nH]c4)c(OC)n3)CC23CCN(CC(C)(C)O)CC3)c1` [Example 163, 8-(2-hydroxy-2-methylpropyl)-3-(4-methoxy-5-(1H-pyrazol-4-yl)pyrimidin-2-yl)-1-(3-methoxybenzyl)-1,3,8-triazaspiro[4.5]decan-2-one], the IC50 fell in the range of 0.003 to 0.03 µM. `O=C1N(c2ccc(-c3cn[nH]c3)cc2)CC2(CCOCC2)N1Cc1c(F)cccc1F` [Example 23, 3-(4-(1H-pyrazolo-4-yl)phenyl)-1-(2,6-difluorobenzyl)-8-oxa-1,3-diazaspiro[4.5]decan-2-one] yielded a half-maximal inhibitory concentration (IC50) of 0.25 to 3 µM.
